Assays:
[1] = test system: Human retinal pigment epithelium (RPE) cultured cells, ARPE-19, pre-loaded with A2E; assay: A2E (lipofuscin bisretinoid) removal assay, fluorescence plate reader; format: cell-based; conditions: for removal of lipofuscin bisretinoids (A2E) from retinal cells: 4 mM cyclodextrin, 48 hrs, cells pre-loaded with 5 μM A2E, FIG. 2
visual acuity of mice = assay: Visual acuity, Spatial Frequency (SF) response by OptoMotry; conditions: intravitreal, twice, one week apart, both eyes: 2 μl 100 mM M-βCD, 1 μl 500 mM HP-βCD or SBE-βCD, FIGS. 10A-10B
[2] = test system: lipofuscin (LB) in RPE of DKO mice (ABCA4 and RDH8 mutations); assay: In vivo LB removal from eyes by intravitreal injection, RPE-eyecup autofluorescence; set-up: species or system mouse; conditions: FIG. 9; for reduction of the amount of lipofuscin vs vehicle (significance, unpaired T-test): two intravitreal injections one week apart, same doses; for total LB extracted from retinas: two intravitreal injections one week apart: 2 μl 100 mM MβCD, 1 μl 500 mM HPβCD or SBE-βCD, eyes harvested 4 days after second injection
[3] = test system: Epithelial cells pre-loaded with A2E; assay: Stoichiometric distribution of A2E between cell lysates and supernatants; format: cell-based; conditions: 12.5 mM, 4 hrs, serum free media, FIG. 7
[4] = test system: lipofuscin and A2E accumulation in ABCA4-/- mouse; conditions: cited from earlier work
[5] = test system: patients diagnosed with Stargardt or AMD; conditions: cited from earlier work
formation of new LB = conditions: oral, animals; cited from earlier work
[6] = test system: lipofuscin in RPE cells of monkey retinas; conditions: oral, one year; cited from earlier work
A2E-loaded RPE cultures = assay: Fluorescence microscopy of LB removal from A2E-loaded cells; format: cell-based, human
Procedure: […] At the end of the incubation period, fluorescence of A2E inside the cells was monitored by fluorescence microscopy at 100× magnification. Cells were stained with Hoechst stain to visualize nuclei of cells that contained A2E.
FIGS. 4A-4B show the removal of LB with methyl β-Cyclodextrin as determined by fluorescence microscopy. […] Cells were stained with Hoechst stain to visualize nuclei. Fluorescence of A2E inside the cells (unextracted cells) was monitored by fluorescence microscopy at 100× magnification.
Untreated A2E-loaded RPE cultures served as negative controls. A2E-loaded RPE cultures were treated with 7.5 mM of the indicated β-Cyclodextrin compound for 48 hrs. For each cyclodextrin, three separate lots were tested. Lipofuscin (yellow) is visualized by fluorescence microscopy (488 nm/600 nm) using low magnification (10×) objective to capture a large number of cells.
Fluorescence microscopy: LBs are auto-fluorescent molecules on account of the abundant conjugated double bonds in their hydrophobic arms. When excited at 430 nm (blue light) they emit yellow-orange fluorescence peaking at 610 nm. The intensity of the fluorescence is proportional to their amounts. Hoechst blue fluorescence dye was used to stain the nucleus of cells treated with cyclodextrins. […] Each dose was assayed in triplicated and ten random fields were evaluated per well. […]

[7] = test system: photoreceptor layer (ONL) / retina; assay: Retina morphometry and histology (ONL thickness, H&E cross sections); format: in vivo, mouse; conditions: intravitreal treatment
Procedure: Morphometric analysis comparing the thickneness of the outer nuclear layer (ONL) in control and SBE-BCD treated animals was performed. The layer of photoreceoptors was selected using Photoshop and ImageJ and thickness was measured.
Stitched images were created using ZEN Blue (Zeiss) from individual fields obtained by color microscopy of hematoxylin and eosin stained paraffin-embedded cross sections of retinas from mice treated with 1 μl vehicle or Sulfo Butyl β-Cyclodextrin.
2 μl 100 mM M-βCD; 1 μl 500 mM HP-3CD; or 1 μl 500 mM SBE-βCD were injected twice, one-week apart, in both eyes and 2 μl H2O were injected intravitreally to age matched controls. To evaluate the visual toxicity of the treatment, the Spatial Frequency response (SF) was determined just before each injection and before sacrificing the mouse, i.e., four days after the second injection. SF is a cone-mediated visual response measured using an OptoMotry (OMT) chamber. Briefly, the mouse standing unrestrained on an elevated platform is surrounded by computer monitors that create a virtual cylinder with black bars on white background.

[8] = long-term oral administration, ABCA4-/-

For `COC[C@H]1O[C@@H]2O[C@H]3[C@H](OC)[C@@H](OC)[C@@H](O[C@H]4[C@H](OC)[C@@H](OC)[C@@H](O[C@H]5[C@H](OC)[C@@H](OC)[C@@H](O[C@H]6[C@H](OC)[C@@H](OC)[C@@H](O[C@H]7[C@H](OC)[C@@H](OC)[C@@H](O[C@H]8[C@H](OC)[C@@H](OC)[C@@H](O[C@H]1[C@H](OC)[C@H]2OC)O[C@@H]8COC)O[C@@H]7COC)O[C@@H]6COC)O[C@@H]5COC)O[C@@H]4COC)O[C@@H]3COC` [2,3,6-tri-O-methyl-β-Cyclodextrin, Heptakis (2,3,6-tri-O-Methyl) β-Cyclodextrin, reference compound], the “removal of lipofuscin bisretinoids (A2E) from retinal cells” value (“removal of lipofuscin bisretinoids (A2E)” for short) [1] was “not effective in promoting LB removal”.

For `COC[C@H]1O[C@@H]2O[C@H]3[C@H](O)[C@@H](OC)[C@@H](O[C@H]4[C@H](O)[C@@H](OC)[C@@H](O[C@H]5[C@H](O)[C@@H](OC)[C@@H](O[C@H]6[C@H](O)[C@@H](OC)[C@@H](O[C@H]7[C@H](O)[C@@H](OC)[C@@H](O[C@H]8[C@H](O)[C@@H](OC)[C@@H](O[C@H]1[C@H](O)[C@H]2OC)O[C@@H]8COC)O[C@@H]7COC)O[C@@H]6COC)O[C@@H]5COC)O[C@@H]4COC)O[C@@H]3COC` [2,6-di-O-methyl-β-Cyclodextrin, Heptakis (2,6-di-O-Methyl) β-Cyclodextrin, reference compound], the “removal of lipofuscin bisretinoids (A2E)” value [1] was “not effective in promoting LB removal”.

In the case of `CC(O)COC[C@H]1O[C@@H]2O[C@H]3[C@H](O)[C@@H](O)[C@@H](O[C@H]4[C@H](O)[C@@H](O)[C@@H](O[C@H]5[C@H](O)[C@@H](O)[C@@H](O[C@H]6[C@H](O)[C@@H](O)[C@@H](O[C@H]7[C@H](O)[C@@H](O)[C@@H](O[C@H]8[C@H](O)[C@@H](O)[C@@H](O[C@H]1[C@H](O)[C@H]2O)O[C@@H]8COCC(C)O)O[C@@H]7COCC(C)O)O[C@@H]6COCC(C)O)O[C@@H]5COCC(C)O)O[C@@H]4COCC(C)O)O[C@@H]3COCC(C)O` (stereo partly drawn) [2-Hydroxy Propyl β-Cyclodextrin, 2-hydroxypropyl beta-Cyclodextrin], the “visual acuity (Spatial Frequency response)” value (visual acuity of mice) is reported as “some animals showing significant impairment of visal response”, the “reduction of the amount of lipofuscin vs vehicle (significance, unpaired T-test)” value (shortened to “reduction … (significance, unpaired T-test)”) [2] is reported as “effective” and the “distribution of A2E fluorescence between cells and supernatants” value (shortened to “distribution”) [3] is reported as “all A2E fluorescence that was absent from cells was present in supernatants”. For the same compound, the “removal of lipofuscin bisretinoids (A2E)” value [1] was “promoted removal of lipofuscin bisretinoids from retinal cells”.

In the case of `[2H]C([2H])([2H])C(/C=C/C=C(C)/C=C/C1=C(C)CCCC1(C)C)=C\COC(C)=O` [ALK-001, deuterated vitamin A], the “visual function by electroretinogram” value ([4]; ABCA4-/- mouse model) is listed as “prevented the gradual loss of visual function”, the “reduction of accumulation of A2E” value [4, 8] is listed as 80% and the “reduction of accumulation of lipofuscin” value [4, 8] is listed as 70%.

For `CC1=C(/C=C/C(C)=C/C=C/C(C)=C/C(=O)Nc2ccc(O)cc2)C(C)(C)CCC1` [fenretinide], the side effects ([5]; oral) is listed as “night blindness, and mild reversible skin-dryness”, the “therapeutic effect in patients” value ([5]; patients already diagnosed with Stargardt or AMD) is listed as “did not confer a significant therapeutic effect” and the “formation of new LB” value (formation of new LB) is listed as “effective at slowing down the formation of new LB”.

With `OC[C@H]1O[C@@H]2O[C@H]3[C@H](O)[C@@H](O)[C@@H](O[C@H]4[C@H](O)[C@@H](O)[C@@H](O[C@H]5[C@H](O)[C@@H](O)[C@@H](O[C@H]6[C@H](O)[C@@H](O)[C@@H](O[C@H]7[C@H](O)[C@@H](O)[C@@H](O[C@H]8[C@H](O)[C@@H](O)[C@@H](O[C@H]9[C@H](O)[C@@H](O)[C@@H](O[C@H]1[C@H](O)[C@H]2O)O[C@@H]9CO)O[C@@H]8CO)O[C@@H]7CO)O[C@@H]6CO)O[C@@H]5CO)O[C@@H]4CO)O[C@@H]3CO` [gamma-cyclodextrin, Gamma-Cyclodextrin, reference compound] the “removal of lipofuscin bisretinoids (A2E)” value [1] was “did not extract A2E”.

In the case of `COCCO[C@@H]1c2ccn3c(C)c(C)nc3c2N[C@H](c2ccccc2)[C@H]1O` [soprazan], the “elimination of lipofuscin from RPE cells” value [6] is listed as “Successful elimination of lipofuscin from RPE cells”.

For `OC[C@H]1O[C@@H]2O[C@H]3[C@H](O)[C@@H](O)[C@@H](O[C@H]4[C@H](O)[C@@H](O)[C@@H](O[C@H]5[C@H](O)[C@@H](O)[C@@H](O[C@H]6[C@H](O)[C@@H](O)[C@@H](O[C@H]7[C@H](O)[C@@H](O)[C@@H](O[C@H]1[C@H](O)[C@H]2O)O[C@@H]7CO)O[C@@H]6CO)O[C@@H]5CO)O[C@@H]4CO)O[C@@H]3CO` [α-Cyclodextrin, reference compound], the “removal of lipofuscin bisretinoids (A2E)” value [1] was “did not extract A2E”.

With `OC[C@H]1O[C@@H]2O[C@H]3[C@H](O)[C@@H](O)[C@@H](O[C@H]4[C@H](O)[C@@H](O)[C@@H](O[C@H]5[C@H](O)[C@@H](O)[C@@H](O[C@H]6[C@H](O)[C@@H](O)[C@@H](O[C@H]7[C@H](O)[C@@H](O)[C@@H](O[C@H]8[C@H](O)[C@@H](O)[C@@H](O[C@H]1[C@H](O)[C@H]2O)O[C@@H]8CO)O[C@@H]7CO)O[C@@H]6CO)O[C@@H]5CO)O[C@@H]4CO)O[C@@H]3CO` [β-Cyclodextrin, reference compound] the “removal of lipofuscin bisretinoids (A2E)” value [1] was “did not extract A2E”.

With Methyl β-Cyclodextrin the “reduction … (significance, unpaired T-test)” value [2] was “did not significantly reduce the amount of lipofuscin”, the “total LB extracted from retinas” value [2] was 18.2% and the “distribution” value [3] was “all A2E fluorescence that was absent from cells was present in supernatants”. For the same compound, the “removal of lipofuscin bisretinoids (A2E)” value [1] was “promoted removal of lipofuscin bisretinoids from retinal cells”, the “dose that removed most of the detectable LB deposits” value ([1]; 24 hrs, FIG. 3A) was 10 to 20 µM and the “dose dependence of A2E removal” value ([1]; 24 hrs, increasing doses, FIG. 3A) was “dose-dependent”. For the same compound, the “A2E removal compared to untreated control at lowest tested dose” value ([1]; 24 hrs, lowest tested dose, FIG. 3A) was “about 75%”, the “localisation of LB after treatment” value (A2E-loaded RPE cultures; 7.5 mM, 100× objective, FIGS. 4A-4B) was “LB was expelled outside the cells” and the “LB fluorescence in cells after treatment” value (A2E-loaded RPE cultures; 24 hours, 100× magnification, FIG. 3B) was “completely devoid of the turquoise fluorescence”.

In the case of “Sulfobutyl ether β-Cyclodextrin [Sulfo Butyl Ether β-Cyclodextrin]”, the “visual acuity (Spatial Frequency response)” value (visual acuity of mice) is reported as “well tolerated showing indistinguishable SF from water treated and non-injected negative controls”, the “reduction … (significance, unpaired T-test)” value [2] is reported as “effective” and the “total LB extracted from retinas” value [2] is reported as 42.6%. For the same compound, the “distribution” value [3] was “all A2E fluorescence that was absent from cells was present in supernatants”, the “removal of lipofuscin bisretinoids (A2E)” value [1] was “promoted removal of lipofuscin bisretinoids from retinal cells” and the “overall structure of the retinas” value ([7]; H&E cross sections, FIG. 11B) was “remained intact”. For the same compound, the “integrity of the photoreceptor layer (ONL)” value ([7]; ONL thickness, FIG. 11A) was “did not compromise the integrity of the photoreceptor layer (ONL)”.

— patent US20220118002A1, “COMPOSITIONS OF MATTER WITH ACTIVITY TO REMOVE LIPOFUSCIN FROM RETINAL CELLS” (Cornell University, priority 2019, published 2022)
